# Measured values as given in patent US10898708B2, “System and method for applying pulsed electromagnetic fields” (National University of Singapore, priority 2015, dated 2021).
# “Also recorded” adds a separate entry of the source.
# Key:
# C2C12 myoblasts [1] = assay: PEMF-induced proliferation of C2C12 myoblasts; details: 100 μM; 1 mT PEMFs within 18 hours after plating
# C2C12 myoblasts [2] = assay: Intracellular calcium in C2C12 myoblasts (Calcium Green-1; flow cytometry or plate reading); assay type: cell-based, mouse
# Description: In preparation for measurement of changes in intracellular calcium in response to PEMF treatment with flow cytometry myoblasts (50,000 cells) were spun down (1000 RCF; 5 minutes), resuspended in 2 ml of PBS and next loaded with 20 μl Calcium Green-1, AM (50 μg in 100 μl DMSO; Molecular Probes) for 30 minutes at 37 C in the dark. Following incubation, cells were washed once, resuspended into 500 μl PBS and placed on ice before registry in a BD FACSAria Flow Cytometer (FL1 channel). For plate reading assessment of intracellular calcium, myoblasts were plated into 96 black well plates (Brand 96 Flat Bottom Black) at 10,000 cells/wells. Cultures were washed once with PBS and supplied with 250 μl growth media to which Calcium Green-1 AM (50 μg in 100 μl DMSO; Molecular Probes) had been added at a dilution of 1:1000. Myoblasts cultures were then incubated in a standard tissue culture incubator for 5 minutes, followed by PEMF exposure for 10 minutes and then replaced in the incubator for an additional 15 minutes at 37° C. before washing with 37° C. PBS. Calcium measurement was conducted using a Tecan Infinite 200Pro plate reader with excitation wavelength and emission wavelengths set to 500 nm and 535 nm, respectively, and bandwidth excitation and emission wavelengths set to 9 and 20 nm, respectively.
# (§1) Each pulse train consists of 20×150 μsec asymmetric pulses separated by 150 μsec interpulse intervals to the 0 flux level. The magnetic flux density rose to maximal level within 20-50 μsec and dropped equally as rapidly (50 T/s).
# C2C12 myoblasts [3] = assay: Cell cycle (G2/M accumulation) of myoblasts in simulated microgravity; assay type: cell-based, mouse; details: 5 mM added transiently 10 minutes before simulated microgravity; at 2 hours
# Description: The RPM was kept in a temperature-controlled room at 37° C. The calculated gravity exerted upon cells on the RPM was below 0.02 g. Cells were seeded 15 hours prior to the start of the RPM experiment at 8000/cm^2. At 15 hours some samples were incubated with 5 mM CaCl2 for 10 min, washed twice with PBS, given aged matched GM and placed onto the RPM. Other samples were exposed to PEMF at 37° C. (0.5 or 1.5 mT) for 10 min before being placed onto the RPM. Samples were fixed after 2 hours for subsequent cell cycle analysis as described below.
# Following RPM treatment (above) cells were fixed and stored at −20° C. in 70% ice-cold ethanol for 12 to 18 hours prior to staining. Cell cycle was analyzed based on DNA content using a propidium iodide (PI)/RNase staining kit (BD Biosciences, cat#550825) by FACS.
# TRPC1 channel = biological target: T1, TRPC1 channel (Homo sapiens, UniProt P48995); assay: Oxygen consumption rate (OCR) of myoblasts in response to PEMF; assay type: cell-based; details: oxygen consumption measured 6 hours after PEMF
# T1 construct: PEMF-induced TRPC1-mediated calcium entry in myoblasts increases oxygen consumption rate (OCR); endogenous in cells
# Description: Muscle gene expression enhanced by PEMF treatment as indicated. […] The principal functions of these genes are shown in the parentheses. […] A) Human myoblast measurement showing increased OCR six hours following exposure to 1.5 mT PEMFs for 10 minutes. B) The production of reactive oxygen species (ROS) also increases 15 minutes after PEMF (1.5 mT) exposure.
# C) Oxygen consumption rate (OCR) in response to PEMF stimulation obeys the same EMF efficacy window as proliferation. […] Cells were exposed to PEMFs and oxygen consumption measured 6 hours later. These cellular responses obey a mitohormeitic EMF efficacy window particular for skeletal muscle.
# C2C12 myoblasts [4] = assay: Myogenic differentiation (myotube area) of C2C12 myoblasts after PEMF; assay type: cell-based, mouse; details: 100 μM co-administered; 1 mT PEMFs, early application
# Description: Series of 4 images with 20× magnification were taken for each sample and myotube area was calculated by manually delimiting the myotube periphery using ImageJ (Cell Counter plugin).
# as §1
# [5] = extracellular magnesium raised to 10 mM, plate reading
# T1 sequence (P48995 whole entry): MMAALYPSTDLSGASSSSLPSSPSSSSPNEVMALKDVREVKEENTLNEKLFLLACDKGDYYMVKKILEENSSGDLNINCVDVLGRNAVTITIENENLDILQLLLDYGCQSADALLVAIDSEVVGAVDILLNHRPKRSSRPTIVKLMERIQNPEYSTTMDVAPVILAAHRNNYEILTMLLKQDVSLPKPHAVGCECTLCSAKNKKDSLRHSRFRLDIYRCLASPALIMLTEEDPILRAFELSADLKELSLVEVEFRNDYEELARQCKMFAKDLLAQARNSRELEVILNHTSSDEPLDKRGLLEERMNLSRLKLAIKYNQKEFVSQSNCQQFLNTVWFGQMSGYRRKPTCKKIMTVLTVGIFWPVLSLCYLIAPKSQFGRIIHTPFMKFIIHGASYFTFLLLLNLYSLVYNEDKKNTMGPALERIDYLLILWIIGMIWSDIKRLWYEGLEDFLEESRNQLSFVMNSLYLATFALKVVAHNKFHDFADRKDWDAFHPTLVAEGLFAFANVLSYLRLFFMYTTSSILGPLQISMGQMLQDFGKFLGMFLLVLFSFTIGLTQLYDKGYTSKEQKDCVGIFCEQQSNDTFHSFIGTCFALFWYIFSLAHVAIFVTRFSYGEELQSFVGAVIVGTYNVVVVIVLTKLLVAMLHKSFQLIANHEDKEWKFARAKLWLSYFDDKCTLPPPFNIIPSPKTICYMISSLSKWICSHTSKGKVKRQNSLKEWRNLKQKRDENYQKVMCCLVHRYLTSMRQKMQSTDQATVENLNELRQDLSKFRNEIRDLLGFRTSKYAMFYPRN
compound,measurement,setting,value
"NCCOB(c1ccccc1)c1ccccc1 [2-APB, 2-Aminoethyl diphenylborinate]",PEMF-induced proliferation,C2C12 myoblasts [1],abolished the ability of PEMFs to enhance proliferation
same,[Ca^2+]i / cytosolic calcium level,"C2C12 myoblasts [2]; 10 μM, unstimulated (0 mT) and stimulated (1 mT) myoblasts",reduced the cytosolic calcium levels to a common baseline; also recorded: reduced [Ca^2+]i to a common baseline
same,PEMF-provoked calcium increments,"C2C12 myoblasts [2]; antagonizing TRPM7/C1 channels, 1 mT PEMFs",precluded the ability of PEMFs to provoke calcium increments
[Ca+2].[Cl-].[Cl-] [CaCl2],Reversal of G2/M accumulation from simulated microgravity,C2C12 myoblasts [3],mimic the effects of 1.5 mT PEMFs
COc1ccc(CCCOC(Cn2ccnc2)c2ccc(OC)cc2)cc1 (centres unmarked) [SKF-96365],OCR in response to PEMF exposure,TRPC1 channel,blocks OCR in response to PEMF exposure
COc1cc(CNC(=O)CCCC/C=C/C(C)C)ccc1O [capsaicin],capsaicin calcium response versus response to PEMFs,C2C12 myoblasts [2]; 1 mT PEMFs,inversely related to response to 1 mT PEMFs
C[C@H](CCC(=O)O)C[C@H](C)C[C@H](C)C(=O)/C=C(\O)[C@H](C)C[C@H](C)C/C=C/[C@@H](C)[C@@H](O)[C@@H](C)[C@@H](O)C[C@@H]1CC[C@@](C)([C@H]2CC[C@@](C)([C@@H](C)O)O2)O1 [ionomycin],[Ca^2+]i increase relative to unexposed cells,"C2C12 myoblasts [2]; 1 μM, 30 min, compared with 1 mT PEMFs for 10 min, listed as lonomycin",comparable magnitude
same,[Ca^2+]i,"C2C12 myoblasts [2]; 1 μM, five-hour application",produced lethal [Ca^2+]i
[Mg+2] [magnesium],PEMF-induced rise of intracellular calcium,C2C12 myoblasts [2]; [5],did not prevent PEMFs from raising intracellular calcium; also recorded: does not prevent PEMFs from raising intracellular calcium
same,basal and PEMF-induced calcium levels,C2C12 myoblasts [2]; [5],augmented both basal and PEMF-induced calcium levels
neomycin,PEMF enhancement of myotube size (mean myotube area),C2C12 myoblasts [4],prevented
